Article PMC6079014, “Calcium is an essential cofactor for metal efflux by the ferroportin transporter family” (Nature Communications, 2018)

Experiments:
BbFpn Q84E = BbFpn Q84E (Bdellovibrio bacteriovorus, UniProt Q6MLJ0, Q84E); assay: Isothermal titration calorimetry, Q84E BbFpn; assay type: binding, Bdellovibrio bacteriovorous
human Fpn = target: T1, human Fpn (Homo sapiens, UniProt Q9NP59); assay: 45Ca radiotracer uptake assay in Xenopus oocytes expressing Fpn; assay type: cell-based; settings: 100 μM 45Ca2+, 30 min; vehicle or 50 nl of 50 µM Fe injected
T1 construct: expressed in transfected cells; host or cells: Xenopus laevis oocytes injected with Fpn RNA
T1 sequence (Q9NP59 1-571): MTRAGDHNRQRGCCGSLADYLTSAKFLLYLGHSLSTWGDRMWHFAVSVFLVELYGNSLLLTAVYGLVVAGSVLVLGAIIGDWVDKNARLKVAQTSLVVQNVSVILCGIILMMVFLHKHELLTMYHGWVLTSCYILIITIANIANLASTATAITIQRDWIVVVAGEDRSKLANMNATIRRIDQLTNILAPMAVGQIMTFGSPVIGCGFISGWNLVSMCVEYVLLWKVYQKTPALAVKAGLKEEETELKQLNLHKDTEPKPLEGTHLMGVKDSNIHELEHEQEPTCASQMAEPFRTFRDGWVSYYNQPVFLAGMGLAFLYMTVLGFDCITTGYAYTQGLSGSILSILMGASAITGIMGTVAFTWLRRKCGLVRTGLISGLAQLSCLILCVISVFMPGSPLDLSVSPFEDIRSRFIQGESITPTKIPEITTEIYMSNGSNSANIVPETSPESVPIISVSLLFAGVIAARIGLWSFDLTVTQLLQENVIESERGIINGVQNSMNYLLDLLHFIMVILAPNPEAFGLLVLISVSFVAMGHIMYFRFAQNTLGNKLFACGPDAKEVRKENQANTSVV
Experimental: We performed laparotomy and ovariectomy on adult female Xenopus laevis frogs (Nasco, Fort Atkinson, WI) under 2-aminoethylbenzoate methanesulfonate anesthesia (0.2%, by immersion, to effect) following a protocol approved by the University of Cincinnati Institutional Animal Care and Use Committee. Ovarian tissue was isolated and treated for 3 h with […] collagenase A (Roche Diagnostics Corp., Indianapolis, IN) in calcium-free-modified Barths’ medium (MBM) of composition 88 mM NaCl, 1 mM KCl, 2.4 mM NaHCO3, 1.57 mM MgSO4, 0.66 mM NaNO3, 10 mM 4-(2-hydroxyethyl)-1-piperazineethanesulfonic acid (HEPES), buffered to pH 7.5 by using 2-amino-2-hydroxymethyl-propane-1,3-diol (Tris base). We isolated defolliculate stage V–VI oocytes stored at 17 °C in MBM of composition 88 mM NaCl, 1 mM KCl, 2.4 mM NaHCO3, 0.82 MgSO4, 0.75 mM CaCl2, 0.66 mM NaNO3, 10 mM HEPES, buffered to pH 7.5 by using Tris base, with 50 mg l^−1 ciprofloxacin. We expressed in Xenopus oocytes the 1A transcript form of human Fpn fused at its C-terminus with the enhanced green fluorescent protein (GFP) as described. Oocytes were injected with ∼50 ng of Fpn RNA and incubated for 4–6 days before being used in functional assays. Control oocytes were noninjected.
We measured calcium uptake by using a radiotracer assay. […]

Sequence of BbFpn Q84E (Q6MLJ0 whole entry Q84E): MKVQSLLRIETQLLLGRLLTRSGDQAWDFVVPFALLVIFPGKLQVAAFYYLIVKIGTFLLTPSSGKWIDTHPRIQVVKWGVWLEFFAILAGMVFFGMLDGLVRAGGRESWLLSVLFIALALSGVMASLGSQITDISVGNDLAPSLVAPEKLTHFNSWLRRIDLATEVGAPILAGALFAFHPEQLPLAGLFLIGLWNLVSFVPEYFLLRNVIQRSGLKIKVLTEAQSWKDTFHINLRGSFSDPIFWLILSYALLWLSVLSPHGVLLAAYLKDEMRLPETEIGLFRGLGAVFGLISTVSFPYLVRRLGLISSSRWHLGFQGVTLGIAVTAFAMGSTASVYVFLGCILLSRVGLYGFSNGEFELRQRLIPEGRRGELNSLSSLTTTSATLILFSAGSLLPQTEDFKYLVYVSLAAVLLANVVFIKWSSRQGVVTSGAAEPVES

## [Ca+2] [Ca^2+, calcium]
BbFpn Q84E
  Binding to Q84E BbFpn by ITC (in words): no Ca^2+ or Sr^2+ binding
Human Fpn
  Uptake of 45Ca2+ in oocytes expressing Fpn vs control: neither Fpn expression nor intracellular iron injection stimulated
